How the values were obtained:
Assay type in all cases: in vivo
[1] = system: ducksalad; assay: Test Example 1: herbicidal effects in preemergence treatment under submerged conditions; conditions: dose 2.52 g/a
Procedure, shortened: (§1)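 Submerged conditions, 4 cm water over alluvial soil. Weeds sown and 2.5-leaf rice transplanted; compound applied preemergence to water surface, doses in g per are. Greenhouse, 25 to 30° C., three weeks, then 0–5 mortality rating.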

[2] = system: bulrush; assay: as above; conditions: dose 2.52 g/a
Procedure, shortened: as §1

[3] = system: barnyardgrass; assay: as above; conditions: dose 2.52 g/a
Procedure, shortened: as §1

[4] = system: ducksalad; assay: Test Example 2: herbicidal effects during the vegetation period under submerged conditions; conditions: treatment during the vegetation period under submerged conditions; dose 2.52 g/a
Procedure, shortened: (§2)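 Barnyardgrass, bulrush and ducksalad were co-sown in alluvial soil flooded to 4 cm and grown in a greenhouse at 25 to 30° C. At the 1- or 2-leaf stage, water-diluted emulsifiable concentrates went onto the water surface at set doses (g/a). Herbicidal effect was scored three weeks later on a graded scale.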

[5] = system: bulrush; assay: as above; conditions: treatment during the vegetation period under submerged conditions; dose 2.52 g/a
Procedure, shortened: as §2

[6] = system: barnyardgrass; assay: as above; conditions: treatment during the vegetation period under submerged conditions; dose 2.52 g/a
Procedure, shortened: as §2

[7] = system: transplanted rice; assay: Test Example 1: preemergence treatment under submerged conditions, effect on crop; conditions: dose 2.52 g/a
Procedure, shortened: as §1

[8] = system: common ragweed; assay: Test Example 3: herbicidal effects in soil treatment
Procedure, shortened: (§3)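 Seeds were sown in sterilized diluvial soil and covered with about 1.5 cm of soil. Compounds, formulated as emulsifiable concentrates and diluted with water, were sprayed evenly over the soil surface at set doses in g/a. Herbicidal effect was scored on a rating scale three weeks later.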

[9] = system: wild oat; assay: as above
Procedure, shortened: as §3

[10] = system: giant foxtail; assay: as above
Procedure, shortened: as §3

[11] = system: Italian ryegrass; assay: as above
Procedure, shortened: as §3

[12] = system: velvetleaf; assay: as above
Procedure, shortened: as §3

[13] = system: large crabgrass; assay: as above
Procedure, shortened: as §3

[14] = system: common chickweed; assay: as above
Procedure, shortened: as §3

[15] = system: common lambsquater; assay: as above
Procedure, shortened: as §3

[16] = system: redroot pigweed; assay: as above
Procedure, shortened: as §3

[17] = system: water foxtail; assay: as above
Procedure, shortened: as §3

[18] = system: barnyardgrass; assay: as above
Procedure, shortened: as §3

[19] = system: posumbu knotweed; assay: as above
Procedure, shortened: as §3

[20] = system: common ragweed; assay: Test Example 4: herbicidal effect in foliage treatment
Procedure, shortened: (§4)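 Herbicidal effect was rated on an evaluation scale three weeks after treatment. Plants had been raised 14 days at 25 to 30° C in sterilized diluvial soil, then received foliar sprays of emulsifiable concentrate diluted in water at predetermined doses expressed as g per are.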

[21] = system: wild oat; assay: as above
Procedure, shortened: as §4

[22] = system: giant foxtail; assay: as above
Procedure, shortened: as §4

[23] = system: Italian ryegrass; assay: as above
Procedure, shortened: as §4

[24] = system: beadstraw; assay: as above
Procedure, shortened: as §4

[25] = system: velvetleaf; assay: as above
Procedure, shortened: as §4

[26] = system: large crabgrass; assay: as above
Procedure, shortened: as §4

[27] = system: common chickweed; assay: as above
Procedure, shortened: as §4

[28] = system: common lambsquater; assay: as above
Procedure, shortened: as §4

[29] = system: redroot pigweed; assay: as above
Procedure, shortened: as §4

[30] = system: water foxtail; assay: as above
Procedure, shortened: as §4

[31] = system: barnyardgrass; assay: as above
Procedure, shortened: as §4

[32] = system: posumbu knotweed; assay: as above
Procedure, shortened: as §4

[33] = dose 6.3 g/a, three weeks after application
[34] = dose 3.2 g/a, three weeks after the application

## CCOC(=O)N(c1ccccc1CN1COCCC1=O)S(=O)(=O)C(F)(F)F [II-2]
[1]
  C: ducksalad, herbicidal effect (evaluation scale 0-5): 5 (mortality of 90% or above (nearly complete death))
[2]
  B: bulrush, herbicidal effect (evaluation scale 0-5): 5 (mortality of 90% or above (nearly complete death))
[3]
  A: barnyardgrass, herbicidal effect (evaluation scale 0-5): 5 (mortality of 90% or above (nearly complete death))
[4]
  C: ducksalad, herbicidal effect (evaluation scale 0-5): 4 (mortality of at least 70% and less than 90%)
[5]
  B: bulrush, herbicidal effect (evaluation scale 0-5): 5 (mortality of 90% or above (nearly complete death))
[6]
  A: barnyardgrass, herbicidal effect (evaluation scale 0-5): 5 (mortality of 90% or above (nearly complete death))
[7]
  a: transplanted rice, effect on crop (evaluation scale 0-5): 1 (mortality of at least 5% and less than 20%)
[8]; dose 6.3 g/a
  J: common ragweed, herbicidal effect (evaluation scale 0-5): 5 (mortality of 90% or above (nearly complete death))
[9]; dose 6.3 g/a
  F: wild oat, herbicidal effect (evaluation scale 0-5): 0 (mortality of less than 5% (almost ineffective))
[10]; dose 6.3 g/a
  E: giant foxtail, herbicidal effect (evaluation scale 0-5): 5 (mortality of 90% or above (nearly complete death))
[11]; dose 6.3 g/a
  H: Italian ryegrass, herbicidal effect (evaluation scale 0-5): 4 (mortality of at least 70% and less than 90%)
[12]; dose 6.3 g/a
  I: velvetleaf, herbicidal effect (evaluation scale 0-5): 5 (mortality of 90% or above (nearly complete death))
[13]; dose 6.3 g/a
  D: large crabgrass, herbicidal effect (evaluation scale 0-5): 5 (mortality of 90% or above (nearly complete death))
[14]; dose 6.3 g/a
  N: common chickweed, herbicidal effect (evaluation scale 0-5): 5 (mortality of 90% or above (nearly complete death))
[15]; dose 6.3 g/a
  L: common lambsquater, herbicidal effect (evaluation scale 0-5): 5 (mortality of 90% or above (nearly complete death))
[16]; dose 6.3 g/a
  K: redroot pigweed, herbicidal effect (evaluation scale 0-5): 0 (mortality of less than 5% (almost ineffective))
[17]; dose 6.3 g/a
  G: water foxtail, herbicidal effect (evaluation scale 0-5): 5 (mortality of 90% or above (nearly complete death))
[18]; dose 6.3 g/a
  A: barnyardgrass, herbicidal effect (evaluation scale 0-5): 5 (mortality of 90% or above (nearly complete death))
[19]; dose 6.3 g/a
  M: posumbu knotweed, herbicidal effect (evaluation scale 0-5): 1 (mortality of at least 5% and less than 20%)
[20]; [33]
  J: common ragweed, herbicidal effect: 4 (mortality of at least 70% and less than 90%)
[21]; [33]
  F: wild oat, herbicidal effect: 0 (mortality of less than 5% (almost ineffective))
[22]; [33]
  E: giant foxtail, herbicidal effect: 5 (mortality of 90% or above (nearly complete death))
[23]; [33]
  H: Italian ryegrass, herbicidal effect: 4 (mortality of at least 70% and less than 90%)
[24]; [33]
  O: beadstraw, herbicidal effect: 4 (mortality of at least 70% and less than 90%)
[25]; [33]
  I: velvetleaf, herbicidal effect: 5 (mortality of 90% or above (nearly complete death))
[26]; [33]
  D: large crabgrass, herbicidal effect: 5 (mortality of 90% or above (nearly complete death))
[27]; [33]
  N: common chickweed, herbicidal effect: 3 (mortality of at least 40% and less than 70%)
[28]; [33]
  L: common lambsquater, herbicidal effect: 4 (mortality of at least 70% and less than 90%)
[29]; [33]
  K: redroot pigweed, herbicidal effect: 0 (mortality of less than 5% (almost ineffective))
[30]; [33]
  G: water foxtail, herbicidal effect: 5 (mortality of 90% or above (nearly complete death))
[31]; [33]
  A: barnyardgrass, herbicidal effect: 5 (mortality of 90% or above (nearly complete death))
[32]; [33]
  M: posumbu knotweed, herbicidal effect: 3 (mortality of at least 40% and less than 70%)

## CCN1COCN(Cc2ccccc2N(C(=O)OCCCl)S(=O)(=O)C(F)(F)F)C1=O [IV-7]
[1]
  C: ducksalad, herbicidal effect (evaluation scale 0-5): 4 (mortality of at least 70% and less than 90%)
[2]
  B: bulrush, herbicidal effect (evaluation scale 0-5): 5 (mortality of 90% or above (nearly complete death))
[3]
  A: barnyardgrass, herbicidal effect (evaluation scale 0-5): 5 (mortality of 90% or above (nearly complete death))
[4]
  C: ducksalad, herbicidal effect (evaluation scale 0-5): 5 (mortality of 90% or above (nearly complete death))
[5]
  B: bulrush, herbicidal effect (evaluation scale 0-5): 5 (mortality of 90% or above (nearly complete death))
[6]
  A: barnyardgrass, herbicidal effect (evaluation scale 0-5): 5 (mortality of 90% or above (nearly complete death))
[7]
  a: transplanted rice, effect on crop (evaluation scale 0-5): 0 (mortality of less than 5% (almost ineffective))
[8]; dose 3.2 g/a
  herbicidal effect, J: common ragweed: 0 (mortality of less than 5% (almost ineffective))
[9]; dose 3.2 g/a
  herbicidal effect, F: wild oat: 1 (mortality of at least 5% and less than 20%)
[10]; dose 3.2 g/a
  herbicidal effect, E: giant foxtail: 3 (mortality of at least 40% and less than 70%)
[11]; dose 3.2 g/a
  herbicidal effect, H: Italian ryegrass: 4 (mortality of at least 70% and less than 90%)
[12]; dose 3.2 g/a
  herbicidal effect, I: velvetleaf: 5 (mortality of 90% or above (nearly complete death))
[13]; dose 3.2 g/a
  herbicidal effect, D: large crabgrass: 5 (mortality of 90% or above (nearly complete death))
[14]; dose 3.2 g/a
  herbicidal effect, N: common chickweed: 4 (mortality of at least 70% and less than 90%)
[15]; dose 3.2 g/a
  herbicidal effect, L: common lambsquater: 4 (mortality of at least 70% and less than 90%)
[16]; dose 3.2 g/a
  herbicidal effect, K: redroot pigweed: 1 (mortality of at least 5% and less than 20%)
[17]; dose 3.2 g/a
  herbicidal effect, G: water foxtail: 5 (mortality of 90% or above (nearly complete death))
[18]; dose 3.2 g/a
  herbicidal effect, A: barnyardgrass: 5 (mortality of 90% or above (nearly complete death))
[19]; dose 3.2 g/a
  herbicidal effect, M: posumbu knotweed: 0 (mortality of less than 5% (almost ineffective))
[20]; [34]
  J: common ragweed, herbicidal effect: 3 (mortality of at least 40% and less than 70%)
[21]; [34]
  F: wild oat, herbicidal effect: 0 (mortality of less than 5% (almost ineffective))
[22]; [34]
  E: giant foxtail, herbicidal effect: 4 (mortality of at least 70% and less than 90%)
[23]; [34]
  H: Italian ryegrass, herbicidal effect: 3 (mortality of at least 40% and less than 70%)
[24]; [34]
  O: beadstraw, herbicidal effect: 3 (mortality of at least 40% and less than 70%)
[25]; [34]
  I: velvetleaf, herbicidal effect: 4 (mortality of at least 70% and less than 90%)
[26]; [34]
  D: large crabgrass, herbicidal effect: 4 (mortality of at least 70% and less than 90%)
[27]; [34]
  N: common chickweed, herbicidal effect: 4 (mortality of at least 70% and less than 90%)
[28]; [34]
  L: common lambsquater, herbicidal effect: 4 (mortality of at least 70% and less than 90%)
[29]; [34]
  K: redroot pigweed, herbicidal effect: 0 (mortality of less than 5% (almost ineffective))
[30]; [34]
  G: water foxtail, herbicidal effect: 5 (mortality of 90% or above (nearly complete death))
[31]; [34]
  A: barnyardgrass, herbicidal effect: 4 (mortality of at least 70% and less than 90%)
[32]; [34]
  M: posumbu knotweed, herbicidal effect: 0 (mortality of less than 5% (almost ineffective))

Source: patent US20120029187A1, “HALOALKYLSULFONANILIDE DERIVATIVE” (Nissan Chemical Industries, Ltd., priority 2009, published 2012)
